{
  "source": "paper PMC9820478",
  "about": "“The Active Site of the Enzyme 10-Formyl-THFDH in the Honey Bee Apis mellifera—A Key Player in Formic Acid Detoxification” (International Journal of Molecular Sciences, 2022)",
  "assay_in_all_cases": "NADPH formation at […] nm, plate reader, Michaelis-Menten nonlinear fit",
  "assay_type_in_all_cases": "biochemical",
  "details_in_all_cases": "200 µM NADP+, 100 mM beta-mercaptoethanol, Tris/HCl pH 7.6, 30 °C; WT values said to accord with the authors' earlier paper [22]",
  "key": {"[1]": {"molecular_target": "T1, 10-formyl-THFDH (Amel_10-formyl-THFDH) (Apis mellifera, UniProt A0A7M7GVR6)", "T1 construct": "gene LOC551401; full-length ORF, N-terminal 6xHis tag (MHHHHHHAQLKVA...) not reported cleaved, baculovirus expression in Hi5 insect cells, Ni-NTA purified", "T1 sequence (A0A7M7GVR6 entry or part of it)": "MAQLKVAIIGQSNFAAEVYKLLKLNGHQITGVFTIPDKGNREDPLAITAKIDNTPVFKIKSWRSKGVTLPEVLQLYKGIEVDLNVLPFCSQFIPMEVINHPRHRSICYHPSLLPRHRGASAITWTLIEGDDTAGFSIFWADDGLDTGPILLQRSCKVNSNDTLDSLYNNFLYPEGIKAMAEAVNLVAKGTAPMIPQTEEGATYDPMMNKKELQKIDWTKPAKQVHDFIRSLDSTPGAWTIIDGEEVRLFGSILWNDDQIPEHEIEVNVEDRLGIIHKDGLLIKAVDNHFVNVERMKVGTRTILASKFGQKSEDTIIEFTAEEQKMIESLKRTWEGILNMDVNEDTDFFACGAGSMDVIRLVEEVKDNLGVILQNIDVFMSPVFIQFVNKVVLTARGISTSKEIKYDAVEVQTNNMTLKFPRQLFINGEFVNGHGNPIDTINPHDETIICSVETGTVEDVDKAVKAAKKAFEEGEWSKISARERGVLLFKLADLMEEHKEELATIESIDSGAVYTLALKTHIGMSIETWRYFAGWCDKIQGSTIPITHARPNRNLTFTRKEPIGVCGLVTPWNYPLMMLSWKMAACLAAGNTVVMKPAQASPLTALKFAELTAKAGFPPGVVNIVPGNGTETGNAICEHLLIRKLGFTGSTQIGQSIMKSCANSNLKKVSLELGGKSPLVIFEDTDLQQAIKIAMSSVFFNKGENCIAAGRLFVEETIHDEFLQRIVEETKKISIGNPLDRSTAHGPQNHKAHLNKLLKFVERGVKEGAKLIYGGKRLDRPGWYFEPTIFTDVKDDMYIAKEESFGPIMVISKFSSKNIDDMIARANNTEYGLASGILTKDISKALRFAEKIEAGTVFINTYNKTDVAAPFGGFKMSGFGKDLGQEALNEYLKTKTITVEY"}, "[2]": {"molecular_target": "T1, 10-formyl-THFDH (Amel_10-formyl-THFDH)", "remark": "listed apart in the source"}, "[3]": {"molecular_target": "T1, 10-formyl-THFDH (Amel_10-formyl-THFDH)", "remark": "listed apart in the source"}, "[4]": {"molecular_target": "T1, 10-formyl-THFDH (Amel_10-formyl-THFDH)", "remark": "listed apart in the source"}},
  "data": [
    {"compound": "Nc1nc2c(c(=O)[nH]1)NC(CN(C=O)c1ccc(C(=O)N[C@@H](CCC(=O)O)C(=O)O)cc1)CN2", "note": "(stereo partly shown) [10-formyl-THF]", "values": [
      {"measurement": "NADPH formation at 340 nm, plate reader, Michaelis-Menten nonlinear fit", "setting": "[1]", "value": "The mutations lost their activity almost entirely"},
      {"measurement": "NADPH formation at 340 nm, plate reader, Michaelis-Menten nonlinear fit", "setting": "[2]", "value": "The mutations lost their activity almost entirely"},
      {"measurement": "Km", "setting": "[3]", "value": 9.6, "unit": "µM"},
      {"measurement": "NADPH formation at 340 nm, plate reader, Michaelis-Menten nonlinear fit", "setting": "[4]", "value": "The mutations lost their activity almost entirely"}
    ]}
  ]
}
